Source: ChEMBL document CHEMBL5579888, “A Comparative Study on the DNA Interactions and Biological Activities of Benzophenanthridine and Protoberberine Alkaloids” (J Nat Prod, 2024)
The source made the active and inactive calls. No cut-off for these calls is given here.

Tests used:
Salmon testes DNA = assay: Displacement of Hoechst 33342 from salmon sperm DNA incubated for 0.5 hrs by SpectraMax M2 microplate reader analysis; type: nucleic-acid assay, Salmo salar
dsDNA [1] = assay: Binding affinity to double stranded DNA AT17 (unknown origin) incubated for 0.5 hrs in presence of different concentration DNA by fluorescence spectra analysis; type: nucleic-acid assay
Quadruplex DNA [2] = assay: Binding affinity to human G4-quadruplex c-kit2 DNA 5'- CGGGCGGGCGCGAGGGAGGGT-3' at 20 uM by UV-Visible absorption spectroscopic analysis; type: nucleic-acid assay
dsDNA [3] = assay: Binding affinity to double stranded DNA AT15-4AT (unknown origin) incubated for 0.5 hrs in presence of different concentration DNA by fluorescence spectra analysis; type: nucleic-acid assay
dsDNA [4] = assay: Binding affinity to double stranded DNA ssab3 (unknown origin) incubated for 0.5 hrs in presence of different concentration DNA by fluorescence spectra analysis; type: nucleic-acid assay
A-375 [5] = assay: Induction of DNA damage in human A-375 cells assessed as appearance of long DNA tails at 5 uM incubated for 24 hrs by comet assay; type: functional, cell-based
dsDNA [6] = assay: Binding affinity to double stranded DNA ssab (unknown origin) at 20 uM by UV-Visible absorption spectroscopic analysis; type: nucleic-acid assay
A-375 [7] = assay: Inhibition of DNA synthesis in human A-375 cells at 5 uM incubated for 24 hrs by Edu incorporation based flow cytometry analysis; type: functional, cell-based
Quadruplex DNA [8] = assay: Binding affinity to human G4-quadruplex Oxy28 DNA 5'- GGGGTTTTGGGGTTTTGGGGTTTTGGGG -3' at 10 uM by CD spectra analysis; type: nucleic-acid assay
Quadruplex DNA [9] = assay: Binding affinity to human G4-quadruplex 22AG DNA 5'- AGGGTTAGGGTTAGGGTTAGGG -3' at 20 uM by UV-Visible absorption spectroscopic analysis; type: nucleic-acid assay
Quadruplex DNA [10] = assay: Binding affinity to human G4-quadruplex Pu27 DNA 5'- TGGGGAGGGTGGGGAGGGTGGGGAAGG-3' assessed as change in fluorescence intensity at 1 uM incubated for 0.5 hrs in presence of different concentrations of DNA by fluorescence spectra analysis; type: nucleic-acid assay
dsDNA [11] = assay: Binding affinity to double stranded DNA AT15-6AT (unknown origin) incubated for 0.5 hrs in presence of different concentration DNA by fluorescence spectra analysis; type: nucleic-acid assay
A-375 [12] = assay: Induction of apoptosis in human A-375 cells assessed assessed as necrotic cells at 5 uM incubated for 24 hrs by Annexin V-Elab Fluor 647/propidium iodide staining based flow cytometry (reference value: 1.45 %); type: functional
dsDNA [13] = assay: Binding affinity to double stranded DNA AT9 (unknown origin) incubated for 0.5 hrs in presence of different concentration DNA by fluorescence spectra analysis; type: nucleic-acid assay
A-375 [14] = assay: Induction of apoptosis in human A-375 cells assessed assessed as late apoptotic cells at 5 uM incubated for 24 hrs by Annexin V-Elab Fluor 647/propidium iodide staining based flow cytometry (reference value: 6.31 %); type: functional
Quadruplex DNA [15] = assay: Displacement of ThT from human G4-quadruplex c-kit2 DNA 5'- CGGGCGGGCGCGAGGGAGGGT-3' incubated for 0.5 hrs by SpectraMax M2 microplate reader analysis; type: nucleic-acid assay
A-375 [16] = assay: Induction of cell cycle arrest in human A-375 cells assessed assessed as cell accumulation at S phase at 5 uM incubated for 24 hrs by propidium iodide staining based flow cytometry (reference value: 30.05 %); type: functional
Quadruplex DNA [17] = assay: Displacement of ThT from human G4-quadruplex Oxy28 DNA 5'- GGGGTTTTGGGGTTTTGGGGTTTTGGGG -3' incubated for 0.5 hrs by SpectraMax M2 microplate reader analysis; type: nucleic-acid assay
Quadruplex DNA [18] = assay: Binding affinity to human G4-quadruplex VEGF DNA 5'- GGGCGGGCCGGGGGCGGG-3' assessed as change in fluorescence intensity at 1 uM incubated for 0.5 hrs by fluorescence spectra analysis; type: nucleic-acid assay
Quadruplex DNA [19] = assay: Binding affinity to human G4-quadruplex 22AG DNA 5'- AGGGTTAGGGTTAGGGTTAGGG -3' assessed as change in fluorescence intensity at 1 uM incubated for 0.5 hrs in presence of different concentrations of DNA by fluorescence spectra analysis; type: nucleic-acid assay
Quadruplex DNA [20] = assay: Displacement of ThT from human G4-quadruplex Bcl2 DNA 5'- CGGGCGCGGGAGGAAGGGGGCGGGAGC-3' incubated for 0.5 hrs by SpectraMax M2 microplate reader analysis; type: nucleic-acid assay
Quadruplex DNA [21] = assay: Binding affinity to human G4-quadruplex Pu27 DNA 5'- TGGGGAGGGTGGGGAGGGTGGGGAAGG-3' at 20 uM by UV-Visible absorption spectroscopic analysis; type: nucleic-acid assay
Quadruplex DNA [22] = assay: Binding affinity to human G4-quadruplex KRAS DNA 5'- AGGGCGGTGTGGGAAGAGGGAAGAGGGGGAGG-3' assessed as change in fluorescence intensity at 1 uM incubated for 0.5 hrs by fluorescence spectra analysis; type: nucleic-acid assay
Quadruplex DNA [23] = assay: Binding affinity to human G4-quadruplex Pu27 DNA 5'- TGGGGAGGGTGGGGAGGGTGGGGAAGG-3' assessed as change in fluorescence intensity at 1 uM incubated for 0.5 hrs by fluorescence spectra analysis; type: nucleic-acid assay
Calf thymus DNA = assay: Displacement of Hoechst 33342 from calf thymus DNA incubated for 0.5 hrs by SpectraMax M2 microplate reader analysis; type: nucleic-acid assay, Bos taurus
Quadruplex DNA [24] = assay: Binding affinity to human G4-quadruplex Oxy28 DNA 5'- GGGGTTTTGGGGTTTTGGGGTTTTGGGG -3' at 20 uM by UV-Visible absorption spectroscopic analysis; type: nucleic-acid assay
dsDNA [25] = assay: Binding affinity to double stranded DNA ssab (unknown origin) assessed as change in fluorescence intensity at 1 uM incubated for 0.5 hrs by fluorescence spectra analysis; type: nucleic-acid assay
Quadruplex DNA [26] = assay: Displacement of ThT from human G4-quadruplex VEGF DNA 5'- GGGCGGGCCGGGGGCGGG-3' incubated for 0.5 hrs by SpectraMax M2 microplate reader analysis; type: nucleic-acid assay
Quadruplex DNA [27] = assay: Binding affinity to human G4-quadruplex c-kit2 DNA 5'- CGGGCGGGCGCGAGGGAGGGT-3' assessed as change in fluorescence intensity at 1 uM incubated for 0.5 hrs by fluorescence spectra analysis; type: nucleic-acid assay
dsDNA [28] = assay: Binding affinity to double stranded DNA ssab2 (unknown origin) incubated for 0.5 hrs in presence of different concentration DNA by fluorescence spectra analysis; type: nucleic-acid assay
dsDNA [29] = assay: Binding affinity to double stranded DNA AT12 (unknown origin) incubated for 0.5 hrs in presence of different concentration DNA by fluorescence spectra analysis; type: nucleic-acid assay
Quadruplex DNA [30] = assay: Binding affinity to human G4-quadruplex VEGF DNA 5'- GGGCGGGCCGGGGGCGGG-3' assessed as change in fluorescence intensity at 1 uM incubated for 0.5 hrs in presence of different concentrations of DNA by fluorescence spectra analysis; type: nucleic-acid assay
dsDNA [31] = assay: Binding affinity to double stranded DNA ssab (unknown origin) assessed as change in fluorescence intensity at 1 uM incubated for 0.5 hrs in presence of different concentrations of DNA by fluorescence spectra analysis; type: nucleic-acid assay
Quadruplex DNA [32] = assay: Binding affinity to human G4-quadruplex Bcl2 DNA 5'- CGGGCGCGGGAGGAAGGGGGCGGGAGC-3' assessed as change in fluorescence intensity at 1 uM incubated for 0.5 hrs by fluorescence spectra analysis; type: nucleic-acid assay

Row | Structure (SMILES) | DC50 (Salmon testes DNA) | EC50 (dsDNA [1]) | Activity (Quadruplex DNA [2]) | EC50 (dsDNA [3]) | EC50 (dsDNA [4]) | Activity (A-375 [5]) | Activity (dsDNA [6]) | inhibition (A-375 [7]) | Activity (Quadruplex DNA [8]) | Activity (Quadruplex DNA [9]) | Kd (Quadruplex DNA [10]) | EC50 (dsDNA [11]) | Activity (A-375 [12]) | Activity (A-375 [14]) | DC50 (Quadruplex DNA [15]) | Activity (A-375 [16]) | DC50 (Quadruplex DNA [17]) | Activity (Quadruplex DNA [18]) | Kd (Quadruplex DNA [20]) | Activity (Quadruplex DNA [21]) | also measured
1 | COc1ccc2cc3[n+](cc2c1OC)CCc1cc2c(cc1-3)OCO2 [BERBERINE] | 56.6 µM | 0.72 µM | Active | 0.23 µM | 0.23 µM | inactive | inactive | inactive | inactive | Active | 5.4 µM | 0.4 µM | 56.1% | 7.26% | 0.69 µM | 28.42% | 3.1 µM | Active | 1.84 µM | Active | Activity (dsDNA [13]): inactive; Kd (Quadruplex DNA [19]): 15.6 µM; Activity (Quadruplex DNA [22]): Active; Activity (Quadruplex DNA [23]): Active; DC50 (Calf thymus DNA): 30.7 µM; Activity (Quadruplex DNA [24]): Active; Activity (dsDNA [25]): inactive; DC50 (Quadruplex DNA [26]): 0.58 µM; Activity (Quadruplex DNA [27]): Active; EC50 (dsDNA [28]): 0.1 µM; EC50 (dsDNA [29]): 0.13 µM; Kd (Quadruplex DNA [30]): 4.96 µM; Activity (dsDNA [31]): inactive; Activity (Quadruplex DNA [32]): Active
2 | C[n+]1cc2c3c(ccc2c2ccc4cc5c(cc4c21)OCO5)OCO3 [SANGUINARIUM] | 5.7 µM | 2.33 µM | Active | 0.77 µM | 1.48 µM | Active | Active | Active | inactive | Active | 7.19 µM | 1.23 µM | 29.3% | 49.5% | 0.25 µM | 31.29% | 0.74 µM | Active | 0.44 µM | Active | Activity (dsDNA [13]): inactive; Activity (Quadruplex DNA [19]): inactive; Activity (Quadruplex DNA [22]): Active; Activity (Quadruplex DNA [23]): Active; DC50 (Calf thymus DNA): 5.87 µM; Activity (Quadruplex DNA [24]): Active; Activity (dsDNA [25]): Active; DC50 (Quadruplex DNA [26]): 0.14 µM; Activity (Quadruplex DNA [27]): Active; EC50 (dsDNA [28]): 1.63 µM; EC50 (dsDNA [29]): 4.15 µM; Activity (Quadruplex DNA [30]): inactive; Activity (dsDNA [31]): Active; Activity (Quadruplex DNA [32]): Active
3 | COc1ccc2c(c[n+](C)c3c4cc5c(cc4ccc23)OCO5)c1OC [CHELERYTHRINE] | 6.47 µM | 3.89 µM | Active | 1.15 µM | 1.29 µM | Active | Active | Active | inactive | Active | 5.29 µM | 1.09 µM | 6.96% | 35.2% | 0.55 µM | 33.02% | 1.15 µM | Active | 0.86 µM | Active | Activity (dsDNA [13]): inactive; Activity (Quadruplex DNA [19]): inactive; Activity (Quadruplex DNA [22]): Active; Activity (Quadruplex DNA [23]): Active; DC50 (Calf thymus DNA): 6.7 µM; Activity (Quadruplex DNA [24]): Active; Activity (dsDNA [25]): Active; DC50 (Quadruplex DNA [26]): 0.41 µM; Activity (Quadruplex DNA [27]): Active; EC50 (dsDNA [28]): 1.06 µM; EC50 (dsDNA [29]): 2.11 µM; Activity (Quadruplex DNA [30]): inactive; Activity (dsDNA [31]): Active; Activity (Quadruplex DNA [32]): Active
4 | c1c2c(cc3c1OCO3)-c1cc3ccc4c(c3c[n+]1CC2)OCO4 [COPTISINE] | 38.1 µM | 7.78 µM | Active | 5.57 µM | 5.84 µM | inactive | inactive | inactive | inactive | Active | 2.17 µM | 8.04 µM | 84.6% | 15.3% | 0.17 µM | 28.21% | 0.58 µM | Active | 0.35 µM | Active | EC50 (dsDNA [13]): 7.12 µM; Kd (Quadruplex DNA [19]): 5.93 µM; Activity (Quadruplex DNA [22]): Active; Activity (Quadruplex DNA [23]): Active; DC50 (Calf thymus DNA): 31.4 µM; Activity (Quadruplex DNA [24]): Active; Activity (dsDNA [25]): inactive; DC50 (Quadruplex DNA [26]): 0.12 µM; Activity (Quadruplex DNA [27]): Active; EC50 (dsDNA [28]): 7.25 µM; EC50 (dsDNA [29]): 18.5 µM; Kd (Quadruplex DNA [30]): 3.39 µM; Activity (dsDNA [31]): inactive; Activity (Quadruplex DNA [32]): Active
